Experimental data as given in patent US20240415845A1, “Compositions of Iboga Alkaloids and Methods of Treatment” (priority 2022, published 2024).

How the values were obtained:
[1] = system: special operations veterans with combat and/or blast exposure; experiment: Hamilton-Anxiety Rating Scale (HAM-A); format: in vivo, human
Text: The pre-specified primary outcome was change in the World Health Organization Disability Assessment Schedule 2.0 (WHODAS) (Gold L. H. et al., J. Am. Acad. Psychiatry Law 42, 9 (2014)) from baseline to post-treatment, with change from baseline to the one-month follow-up a secondary outcome. Additional pre-specified secondary outcomes included post-treatment changes on the Clinician Administered PTSD Scale (CAPS-5; Weathers, F. W. et al., Psychol. Assess., 30, 383-395 (2018)), Montgomery-Åsberg Depression Rating Scale (MADRS; Montgomery, S. A., Br. J. Psychiatry J. Ment. Sci., 134, 382-389 (1979)) and the Hamilton-Anxiety Rating Scale (HAM-A; Bruss, G. S., et al., Psychiatry Res., 53, 191-202 (1994)). […] An additional dose of magnesium was administered approximately 12 hours later. To assess the significance of post-treatment changes, linear mixed effects (LME) models were used for each outcome measure. False Discovery Rate (FDR; Benjamini, Y. et al., J. R. Stat. Soc. Ser. B Methodol., 57, 289-300 (1995)) was applied to correct for multiple comparisons.
To further assess changes in comorbid psychiatric symptoms identified by the models, mean percent reduction, response rate, and remission rate according to the CAPS-5, MADRS and HAM-A (Table 1) were calculated. Response on the CAPS-5, MADRS, and HAM-A was defined as a reduction of at least 10 points (Mitchell, J. M. et al., Nat. Med. 27, 1025-1033(2021)), 50% (Leucht, S. et al., J. Affect. Disord. 210, 287-293 (2017)), and 50% (McIntyre, A. et al., Depress. Anxiety 24, 487-494 (2007)), respectively; remission as loss of diagnosis and a total score below 12 (Mitchell, J. M. et al. supra), <8 (Leucht, S. et al. supra), and <8(McIntyre, A. et al., supra), respectively. One participant's baseline scores met criteria for remission in all three scales and so were excluded from the calculation of response and remission rates, leaving 29 participants in these specific analyses.
With subjects in the fasting state, an intravenous infusion of 1 gram of magnesium sulfate was administered 1-2 hours prior to treatment. […] Medical staff (MD, RN, or EMT) were onsite at a ratio of at least 1 staff per 2 patients throughout treatment for monitoring and management, but no specific coaching or psychological support was provided during treatment.
Clinician administered scales included CAPS-5 (Clinician-administered PTSD Scale for DSM-5), which is a gold standard assessment of PTSD symptom severity; MADRS (Montgomery-Asberg Depression Rating Scale), a measure for depressive symptom severity: and Hamilton-Anxiety Rating Scale (HAM-A) (Shear, M. K. et al., Depress. Anxiety 13, 166-178 (2001)) a measure for anxiety symptom severity: SCID-5 (Structured Clinical Interview for DSM-5) Overview for a historical and environmental context of symptom presentation: MINI DSM-5 (Mini International Neuropsychiatric Interview from DSM-5) for a structured psychodiagnostics assessment: BAT-L (Boston Assessment of TBI-Lifetime) for a lifetime history of TBI and blast exposure: and Ohio State University TBI Identification Method (Short Form) for a lifetime history of TBI. MADRS testing provides an indication of depressive symptoms, CAPS-5 provides an indication of PTSD and SIGH-A provides an indication of anxiety. Collectively these overlap to provide indication of mood, concentration, sleep and tension.
To assess anxiety symptoms, the Hamilton Anxiety Rating Scale was used. This scale includes 14-items assessing both psychic and physical symptoms of anxiety. Items are rated on a scale from 0 (no symptoms) to 4 (severe symptoms). Total score ranges were: no or minimal anxiety (≤7), mild (8-14), moderate (15-23), and severe anxiety symptoms (≥24) (Matza et al., Int. J. Methods Psychiatr. Res. 19, 223-232 (2010))).

[2] = system: special operations veterans with combat and/or blast exposure; experiment: Self-reported alcohol consumption and intoxication; format: in vivo, human; settings: one month following treatment
Protocol: Alcohol consumption in the enrolled subjects was also evaluated. At baseline, 11 of the 30 enrolled subjects reported drinking at least four days per week and 12 of the 30 enrolled subjects reported drinking at least four days per week over the last month. Some of the subjects reported drinking daily. One month following treatment, none (zero) of the enrolled subjects reported drinking more than three times per week. 28 of the 30 enrolled subjects reported drinking less than twice per week over the past month.
Intoxication by alcohol was also evaluated in the enrolled subjects. At baseline, 9 of the 30 enrolled subjects reported being intoxicated more than once over the last 30 days, with some subjects reporting being intoxicated for 25 of the last 30 days. One month following treatment, one participant reported four episodes of intoxication after reporting 23 episodes at baseline.

[3] = 1-mo. post, only participants meeting relevant MINI diagnostic criteria
[4] = 1-mo. post, only participants with mild TBI
[5] = 1-wk. post, only participants meeting relevant MINI diagnostic criteria
[6] = 1-wk. post, only participants with mild TBI

## CCC1CC2CC3c4[nH]c5ccc(OC)cc5c4CCN(C2)C13 (stereo not shown) [ibogaine, Ibogaine]
[1]; [3]
  HAM-A % Reduction vs Baseline: 80% ± 23%
  HAM-A Remission Rate: 71%
  HAM-A Response Rate: 86%
[1]; 1-mo. post, only participants meeting relevant MINI diagnostic criteria at baseline (N 14), baseline 23.8 ± 7.6
  HAM-A score: 5.1
[1]; [4]
  HAM-A % Reduction vs Baseline: 82% ± 21%
  HAM-A Remission Rate: 85%
  HAM-A Response Rate: 93%
[1]; 1-mo. post, only participants with mild TBI (N 28), baseline 20.7 ± 8.6
  HAM-A score: 3.7
[1]; 1-wk post, only participants meeting relevant MINI diagnostic criteria at baseline (N 14), baseline 23.8 ± 7.6
  HAM-A score: 4.2
[1]; [5]
  HAM-A % Reduction vs Baseline: 82% ± 14%
  HAM-A Remission Rate: 86%
  HAM-A Response Rate: 100%
[1]; [6]
  HAM-A % Reduction vs Baseline: 82% ± 19%
  HAM-A Remission Rate: 89%
  HAM-A Response Rate: 96%
[1]; 1-wk. post, only participants with mild TBI (N 28), baseline 20.7 ± 8.6
  HAM-A score: 3.3
[1]; baseline vs 1-mo. post, only participants meeting relevant MINI diagnostic criteria (N 14)
  HAM-A, effect size D: 2.33
[1]; baseline vs 1-mo. post, only participants with mild TBI (N 28)
  HAM-A, effect size D: 2.07
[1]; baseline vs 1-wk post, only participants with mild TBI (N 28)
  HAM-A, effect size D: 2.02
[1]; baseline vs 1-wk. post, only participants meeting relevant MINI diagnostic criteria (N 14)
  HAM-A, effect size D: 2.52
[1]; baseline vs one-month post, all participants
  HAM-A, effect size D: 2.13
[1]; baseline vs one-week post, all participants
  HAM-A, effect size D: 2.06
[1]; four days after (immediate post) treatment, baseline about 21 (FIG. 5A)
  HAM-A anxiety symptom severity score: about 7
[1]; four days after treatment relative to baseline (FIG. 5A)
  HAM-A effect size: 1.81
[1]; one month post treatment (FIG. 5B)
  subjects scoring below the mild anxiety range (HAM-A): 90%
[1]; one month post treatment relative to baseline (FIG. 5A)
  HAM-A effect size: 1.82
[1]; one-month post, 29 participants, remission = score <8
  HAM-A Remission Rate: 83%
[1]; one-month post, 29 participants, response = reduction of at least 50%
  HAM-A Response Rate: 93%
[1]; one-month post, all participants, baseline 20.8 ± 8.5, mean ± SD
  HAM-A score: 3.9
[1]; one-month post, all participants, mean ± SD
  HAM-A % Reduction vs Baseline: 81% ± 21%
[1]; one-week post, 29 participants, remission = score <8
  HAM-A Remission Rate: 86%
[1]; one-week post, 29 participants, response = reduction of at least 50%
  HAM-A Response Rate: 97%
[1]; one-week post, all participants, baseline 20.8 ± 8.5, mean ± SD
  HAM-A score: 3.6
[1]; one-week post, all participants, mean ± SD
  HAM-A % Reduction vs Baseline: 81% ± 19%
[2]; 23 episodes at baseline
  episodes of intoxication reported by one participant: four
[2]; 30 subjects, at baseline 11 of 30 drank at least four days per week
  enrolled subjects reporting drinking more than three times per week: zero
[2]; of the 30 enrolled subjects
  enrolled subjects reporting drinking less than twice per week over the past month: 28
